From patent US12692509B2, “Methods for generating new genes in organism and use thereof” (Qingdao Kingagroot Chemical Compound Co., Ltd., priority 2019, dated 2026)

Columns and labels:
[1] = test system: wild-type Huaidao No. 5; experiment: PPO inhibitory herbicide resistance test, T0 generation, spray application: wild-type control; assay type: in vivo, rice; details: 0.18, 0.4 and 0.6 g ai/mu
Text: (§1) Transformation seedlings of QY2234 T0 generation identified as inversion event-positive were transplanted into large plastic buckets in the greenhouse to grow seeds of T1 generation. There were a large number of positive seedlings, so some T0 seedlings and wild-type control lines with similar growth period and status were selected. When the plant height reached about 20 cm, the herbicide resistance test was directly carried out. The herbicide used was a high-efficiency PPO inhibitory herbicide [drawing 1] produced by the company (code 2081, see […] Patent Application for Invention No. 202010281666.4). In this experiment, the herbicide was applied at the gradients of three levels, namely 0.18, 0.4, and 0.6 g ai/mu, by a walk-in type spray tower.

[2] = test system: QY2234 T0 generation PPO1 inversion strain; experiment: PPO inhibitory herbicide resistance test, T0 generation, spray application: PPO1 inversion lines; assay type: in vivo, rice
Text: as §1

[3] = test system: wild-type Huaidao No. 5; experiment: Herbicide resistance test of T1 generation seedlings, spraying: wild-type control; assay type: in vivo, rice; details: 5 days after application
Experimental: (§2) The herbicide resistance test was performed on the T1 generation of the QY2234/H5-851 PPO1 inversion lines at seedling stage. The wild-type Huaidao No. 5 was used as a control, and planted simultaneously with the T1 generation seeds of the inversion lines. When the seedlings reached a plant height of 15 cm, 2081 was applied by spraying at four levels of 0.3, 0.6, 0.9 and 1.2 g a.i./mu. The culture conditions were 28° C., with 16 hours of light and 8 hours of darkness.

[4] = test system: QY2234/H5-851 T1 seedlings; experiment: Herbicide resistance test of T1 generation seedlings, spraying: PPO1 inversion line; assay type: in vivo, rice; details: 5 days after application
Experimental: as §2

[5] = test system: Plants containing the new EPSPS gene; experiment: Herbicide bioassay on plants containing the new EPSPS gene; assay type: in vivo; details: rice plants from Agrobacterium-transformed calli
Text: These vectors were transferred into Agrobacterium for transforming calli of rice. Plants containing the new EPSPS gene were obtained.

[6] = test system: wild-type Jinjing 818; experiment: Herbicide resistance test, T0 generation, spray application: wild-type control; assay type: in vivo, rice; details: 2, 4, 8 and 32 g a.i./mu
Experimental: (§3) The transformation seedlings of T0 generation identified as doubling event positive were transplanted into large plastic buckets in the greenhouse for expanding propagation to obtain seeds of T1 generation. After the seedlings began to tiller, the tillers were taken from vigorously growing strains, and planted in the same pots with the tillers of the wild-type control varieties at the same growth period. After the plant height reached about 20 cm, the herbicide resistance test was conducted. The herbicide used was Shuangzuocaotong (CAS No. 1622908-18-2) produced by our company, and its field dosage was usually 4 grams of active ingredients per mu (4 g a.i./mu). In this experiment, Shuangzuocaotong was applied at a dosage gradient of 2 g a.i./mu, 4 g a.i./mu, 8 g a.i./mu and 32 g a.i./muwith a walk-in spray tower.

[7] = test system: QY2091 T0 generation HPPD gene doubling strain; experiment: Herbicide resistance test, T0 generation, spray application: HPPD doubling strains; assay type: in vivo, rice; details: for phenotype of HPPD doubling event strains after application: 2, 4, 8 and 32 g a.i./mu
Experimental: as §3

[8] = test system: wild-type Jinjing 818; experiment: Herbicide resistance test at seedling stage, germination on 1/2 MS medium with herbicide: wild-type control; assay type: in vivo, rice; details: 1.2 μM in 1/2 MS medium, 10 days of cultivation in light
Experimental: (§4) The herbicide resistance of the T1 generation of the QY2091 HPPD doubled strain was tested at the seedling stage. After the T1 generation seeds were subjected to surface disinfection, they germinated on ½ MS medium containing 1.2 μM Shuangzuocaotong, and cultivated at 28° C., 16 hours light/8 hours dark, in which wild-type Jinjing 818 was used as a control.

[9] = test system: T1 generation of the QY2091 HPPD doubled strain; experiment: Herbicide resistance test at seedling stage, germination on 1/2 MS medium with herbicide: T1 of HPPD doubled strain; assay type: in vivo, rice; details: 1.2 μM in 1/2 MS medium, 10 days; lines QY2091-7, 13, 20, 22
Experimental: as §4

[10] = T0 generation, versus wild type

In the case of `COC(=O)[C@@H](C)O/N=C/c1cc(-n2c(=O)cc(C(F)(F)F)n(C)c2=O)c(F)cc1Cl` [compound 2081], the “phenotype of wild-type control rice seedlings after application” value ([1]; 3-5 days after application) is reported as “began to wither from tip of leaf, necrotic spots appeared on the leaves, and the plants gradually withered”, the “phenotype of wild-type rice seedlings after application” value ([1]; two weeks after application) is reported as “died” and the “phenotype of most lines of the PPO1 inversion event after application” value ([2]; 3-5 days after application, 0.18, 0.4 and 0.6 g ai/mu) is reported as “maintained normal growth, the leaves had no obvious phytotoxicity”. For the same compound, the “tolerance of PPO1 inversion lines to the herbicide” value [2, 10] was “significantly improve the tolerance”, the “phenotype of most inversion event strains after application” value ([2]; two weeks after application, 0.18, 0.4 and 0.6 g ai/mu) was “continued to remain green and grew normally” and the “phytotoxicity on wild-type control rice seedlings” value ([3]; 0.3 g a.i./mu) was “obvious phytotoxicity”. For the same compound, the “phytotoxicity on wild-type control” value ([3]; 0.6 and 0.9 g ai/mu) was “substantially died off”, the “phytotoxicity on wild-type control rice seedlings” value ([3]; 0.6 g a.i./mu) was “the plants died quickly” and the “phytotoxicity on wild-type control plants” value ([3]; 1.2 g a.i./mu) was “all dead”. The “phytotoxicity on QY2234/H5-851 T1 seedlings” value ([4]; 0.3 g a.i./mu) was “maintain normal growth”, the “phytotoxicity on QY2234/H5-851 T1 seedlings” value ([4]; 0.6 and 0.9 g ai/mu) was “most T1 seedlings could keep green and continue to grow” and the “phytotoxicity on QY2234/H5-851 T1 seedlings” value ([4]; 1.2 g a.i./mu) was “some of the T1 seedlings could keep green and continue to grow”.
With `O=C(O)CNCP(=O)(O)O` [glyphosate] the “resistance of plants containing the new EPSPS gene to the herbicide” value [5] was “obvious resistance”.
With `Cc1nn(C)cc1C(=O)Oc1c(C(=O)c2ccc(C(F)(F)F)cc2S(C)(=O)=O)c(C)nn1C` [Shuangzuocaotong] the “phenotype of wild-type rice seedlings after application” value ([6]; 4 weeks after application) was “close to death”, the “phenotype of wild-type control rice seedlings after application” value ([6]; 5-7 days after application, spray tower) was “began to show albino” and the “phenotype of HPPD doubling event strains after application” value ([7]; 4 weeks after application) was “all continued to remain green and grew normally”. For the same compound, the “phenotype of HPPD doubling event strains after application” value ([7]; 5-7 days after application) was “all remained normally green”, the “tolerance of HPPD gene-doubled strains to the herbicide” value [7, 10] was “significantly improved tolerance” and the “resistance of plants to the HPPD inhibitory herbicide” value ([7]; T0 transformed seedlings, field dosage 4 g a.i./mu) was “up to 8 times the field dose”. For the same compound, the “phenotype of wild-type control rice seedlings” value [8] was “almost all albino” and the “phenotype of green T1 seedlings of HPPD doubling lines” value [9] was “continued to remain green and grew normally”.
